Among the test systems are HCT-116; SK-OV-3; SF-295; Malme-3M; KM12; ACHN; NCI-H522; 786-0; HOP-92; MOLT-4; A549; EKVX; HT-29; OVCAR-8; A498; LOX IMVI; CCRF-CEM; CAKI-1.
Holding throughout (assay): NCI-60 cell line screen, 48 h

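Tested at 5 concentrations; 48 h exposure; 96-well plates; endpoints linearly interpolated, else capped at highest concentration. Abbreviation: GI50, concentration required for 50% inhibition of growth.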 Activity calls are given as the source filed them. Rule as the data show it: active = GI50 up to about 1.1 µM and inactive = higher.

With `CCOC(=O)CCC(=O)C1c2cccc(O)c2C(=O)c2c(O)cc(C)cc21` (stereo unspecified), the GI50 in the test on HCT-116 was 0.805 µM (active); in the test with SK-OV-3, 0.865 µM (active); in the test with SF-295, 0.332 µM (active); in the test with Malme-3M it was 1.34 µM (inactive); with KM12, 0.245 µM (active); in the test with ACHN it was 0.993 µM (active). Moreover, the GI50 with NCI-H522 was 0.392 µM (active); with 786-0, 1.32 µM (inactive); in the test on HOP-92, 1.46 µM (inactive); in the test on MOLT-4, 2.1 µM (inactive); in the test with A549, 0.695 µM (active); in the test on EKVX, 1.82 µM (inactive). The GI50 in the test on HT-29 is 2.47 µM (inactive); with OVCAR-8, 0.764 µM (active); with A498 it was 2.28 µM (inactive); in the test on LOX IMVI, 0.729 µM (active); with CCRF-CEM, 0.519 µM (active); in the test with CAKI-1, 1.79 µM (inactive).
In the case of `CC(=O)CC(=O)Nc1ccc(OS(N)(=O)=O)cc1`, the GI50 with HCT-116, in the test with SK-OV-3, in the test with SF-295, in the test with Malme-3M, with KM12 and in the test with ACHN was > 100 µM (inactive) in each case. The GI50 with NCI-H522, with 786-0, with HOP-92, with MOLT-4, in the test on A549 and in the test with EKVX was > 100 µM (inactive) in each case. For the same compound, the GI50 in the test with HT-29, in the test with OVCAR-8, in the test on A498, in the test with CCRF-CEM and with CAKI-1 was > 100 µM (inactive) in each case.
In the case of `Cc1ccc(N2C(=O)/C(=C3\Sc4c(nc(C)n(C)c4=O)N3c3ccccc3)SC2=S)cc1`, the GI50 with HCT-116 is 64.7 µM (inactive); in the test with SK-OV-3 it was 54.8 µM (inactive); in the test on SF-295, 52.7 µM (inactive); in the test with KM12 it was > 100 µM (inactive); in the test with ACHN, > 100 µM (inactive); with NCI-H522, > 100 µM (inactive). The GI50 in the test on 786-0 was 36.9 µM (inactive); in the test with HOP-92, 33.8 µM (inactive); with MOLT-4, > 100 µM (inactive); with A549, 49.2 µM (inactive); with EKVX it was > 100 µM (inactive); in the test with HT-29, > 100 µM (inactive). Also, the GI50 in the test with OVCAR-8 was 27.9 µM (inactive); in the test with A498, 30.1 µM (inactive); in the test on LOX IMVI, > 100 µM (inactive); with CCRF-CEM it was > 100 µM (inactive); in the test on CAKI-1 it was 41.3 µM (inactive).
On to `O=C1OC(Cc2ccccc2)(N2CCCC2=O)C1c1ccccc1` (stereo unspecified), for which the GI50 in the test with HCT-116 is 53.2 µM (inactive); with SK-OV-3 it was 73.1 µM (inactive); with SF-295 it was > 100 µM (inactive); in the test on Malme-3M, > 100 µM (inactive); with KM12, 74.8 µM (inactive); in the test on ACHN, 75.2 µM (inactive). Moreover, the GI50 is 48.2 µM (inactive) in the test on NCI-H522; > 100 µM (inactive) in the test on 786-0; 62.8 µM (inactive) in the test with HOP-92; 43.6 µM (inactive) with MOLT-4; 95.7 µM (inactive) in the test on A549; 48.6 µM (inactive) in the test with EKVX. Moreover, the GI50 was > 100 µM (inactive) in the test with HT-29; > 100 µM (inactive) in the test with OVCAR-8; 4.95 µM (inactive) in the test on A498; 43.9 µM (inactive) in the test with CCRF-CEM; > 100 µM (inactive) with CAKI-1.
Turning to `Cn1nc(-c2ccccc2)c(C(=O)/C=C/c2ccc(F)cc2)c(N2CCOCC2)c1=O`, the GI50 is 4.21 µM (inactive) in the test with HCT-116; 32.7 µM (inactive) in the test with SK-OV-3; 18.2 µM (inactive) in the test with SF-295; 22.5 µM (inactive) in the test with ACHN; 14.5 µM (inactive) in the test with NCI-H522; 16 µM (inactive) in the test on 786-0. Further, the GI50 was 15.2 µM (inactive) in the test on HOP-92; 14.2 µM (inactive) in the test with MOLT-4; 17.4 µM (inactive) with A549; 25.7 µM (inactive) in the test on EKVX; 15.9 µM (inactive) in the test on HT-29; 22.5 µM (inactive) with OVCAR-8. For the same compound, the GI50 in the test with A498 was 17.7 µM (inactive); in the test with LOX IMVI, 21.1 µM (inactive); with CCRF-CEM it was 17.7 µM (inactive); with CAKI-1 it was > 10 µM (inactive).
Turning to `COC(=O)C(=O)C(CC(=O)Nc1cc(Cl)ccc1Cl)C(=O)OC` (stereo unspecified), the GI50 in the test with HCT-116, in the test with SK-OV-3, in the test on SF-295, in the test on Malme-3M, in the test with KM12 and in the test with ACHN was > 100 µM (inactive) in each case. Besides, the GI50 in the test on NCI-H522, with 786-0, in the test on HOP-92, with MOLT-4, in the test on A549 and with EKVX was > 100 µM (inactive) throughout. Also, the GI50 in the test with HT-29, with OVCAR-8, in the test with A498, in the test with LOX IMVI, in the test with CCRF-CEM and in the test with CAKI-1 was > 100 µM (inactive) in each case.
`Cc1ccc(S(=O)OC23CC4CC(CC(C4)C2)C3)cc1` (stereo unspecified): the GI50 in the test on HCT-116, in the test with SK-OV-3, in the test with SF-295, in the test with Malme-3M, with KM12 and in the test with ACHN was > 100 µM (inactive) in each case. The GI50 in the test with NCI-H522 is 30.5 µM (inactive); in the test with 786-0, > 100 µM (inactive); in the test with HOP-92, > 100 µM (inactive); with MOLT-4, 29.9 µM (inactive); with A549, > 100 µM (inactive); in the test on EKVX, > 100 µM (inactive). In addition, the GI50 in the test on HT-29 is > 100 µM (inactive); in the test on OVCAR-8, > 100 µM (inactive); in the test with A498, > 100 µM (inactive); in the test on LOX IMVI, 39.2 µM (inactive); with CAKI-1, > 100 µM (inactive).
With `COc1ccc(C2=C(Cl)c3cc(OC)c(OC)cc3C2)cc1OC`, the GI50 with HCT-116, with SK-OV-3, in the test on SF-295, in the test on Malme-3M, in the test on ACHN and in the test with NCI-H522 was > 100 µM (inactive) each time. Moreover, the GI50 with 786-0, in the test with HOP-92, in the test on MOLT-4, in the test on A549, in the test with EKVX and with HT-29 was > 100 µM (inactive) each time. Moreover, the GI50 in the test on OVCAR-8 was > 100 µM (inactive); in the test with A498, 34.9 µM (inactive); in the test with CCRF-CEM it was > 100 µM (inactive).
Turning to `CC(=O)N1CCN(c2ccc(OCC3COC(Cn4ccnc4)(c4ccc(Cl)cc4Cl)O3)cc2)CC1` (stereo unspecified) [KETOCONAZOLE], the GI50 with HCT-116 is 22.3 µM (inactive); with SK-OV-3 it was 55.8 µM (inactive); in the test on Malme-3M it was 28.8 µM (inactive); with KM12, 30.6 µM (inactive); in the test with ACHN it was 36.2 µM (inactive); in the test on NCI-H522 it was 25.6 µM (inactive). The GI50 is 36 µM (inactive) in the test with 786-0; 41.7 µM (inactive) in the test on HOP-92; 22.5 µM (inactive) with MOLT-4; 27.3 µM (inactive) in the test on A549; 18.9 µM (inactive) in the test on HT-29; 26.7 µM (inactive) in the test with OVCAR-8. In addition, the GI50 with A498 was 37 µM (inactive); with LOX IMVI, 16.9 µM (inactive); with CCRF-CEM, 27.6 µM (inactive); in the test with CAKI-1 it was 35.5 µM (inactive).

These data come from ChEMBL document CHEMBL1201862, “PubChem BioAssay data set” (2004).
